Assay results taken from PMC2725291, “Genetic and Molecular Basis of Individual Differences in Human Umami Taste Perception” (PLoS ONE, 2009).

Molecular target: T1, TAS1R1-372A and TAS1R3-757R (Homo sapiens, UniProt Q7RTX0+Q7RTX1, C757R)
T1 construct: expressed in transfected cells; host or cells: HEK293
T1 sequence (Q7RTX1 21-841): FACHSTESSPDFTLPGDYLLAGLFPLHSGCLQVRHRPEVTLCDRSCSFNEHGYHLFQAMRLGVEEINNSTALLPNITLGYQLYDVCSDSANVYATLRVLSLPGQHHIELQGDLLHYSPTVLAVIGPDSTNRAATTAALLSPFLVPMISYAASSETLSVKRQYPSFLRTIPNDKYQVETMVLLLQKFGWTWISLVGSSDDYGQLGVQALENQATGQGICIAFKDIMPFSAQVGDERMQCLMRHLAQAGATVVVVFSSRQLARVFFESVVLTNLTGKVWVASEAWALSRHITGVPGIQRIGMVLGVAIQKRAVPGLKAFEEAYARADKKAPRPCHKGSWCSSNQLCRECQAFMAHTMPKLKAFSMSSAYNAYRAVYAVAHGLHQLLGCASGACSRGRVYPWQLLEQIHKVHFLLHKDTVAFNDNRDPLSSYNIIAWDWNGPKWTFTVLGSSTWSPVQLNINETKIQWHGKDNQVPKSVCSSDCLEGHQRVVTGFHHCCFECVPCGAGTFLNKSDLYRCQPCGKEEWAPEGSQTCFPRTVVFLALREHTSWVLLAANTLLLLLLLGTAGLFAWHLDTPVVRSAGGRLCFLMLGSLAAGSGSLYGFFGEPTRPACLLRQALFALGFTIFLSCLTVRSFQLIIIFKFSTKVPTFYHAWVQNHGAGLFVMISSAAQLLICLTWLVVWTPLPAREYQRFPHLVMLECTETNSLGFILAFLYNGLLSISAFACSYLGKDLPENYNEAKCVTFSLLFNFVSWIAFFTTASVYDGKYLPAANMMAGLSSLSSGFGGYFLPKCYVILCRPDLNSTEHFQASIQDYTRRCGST
T1 sequence (Q7RTX0 21-852 C757R): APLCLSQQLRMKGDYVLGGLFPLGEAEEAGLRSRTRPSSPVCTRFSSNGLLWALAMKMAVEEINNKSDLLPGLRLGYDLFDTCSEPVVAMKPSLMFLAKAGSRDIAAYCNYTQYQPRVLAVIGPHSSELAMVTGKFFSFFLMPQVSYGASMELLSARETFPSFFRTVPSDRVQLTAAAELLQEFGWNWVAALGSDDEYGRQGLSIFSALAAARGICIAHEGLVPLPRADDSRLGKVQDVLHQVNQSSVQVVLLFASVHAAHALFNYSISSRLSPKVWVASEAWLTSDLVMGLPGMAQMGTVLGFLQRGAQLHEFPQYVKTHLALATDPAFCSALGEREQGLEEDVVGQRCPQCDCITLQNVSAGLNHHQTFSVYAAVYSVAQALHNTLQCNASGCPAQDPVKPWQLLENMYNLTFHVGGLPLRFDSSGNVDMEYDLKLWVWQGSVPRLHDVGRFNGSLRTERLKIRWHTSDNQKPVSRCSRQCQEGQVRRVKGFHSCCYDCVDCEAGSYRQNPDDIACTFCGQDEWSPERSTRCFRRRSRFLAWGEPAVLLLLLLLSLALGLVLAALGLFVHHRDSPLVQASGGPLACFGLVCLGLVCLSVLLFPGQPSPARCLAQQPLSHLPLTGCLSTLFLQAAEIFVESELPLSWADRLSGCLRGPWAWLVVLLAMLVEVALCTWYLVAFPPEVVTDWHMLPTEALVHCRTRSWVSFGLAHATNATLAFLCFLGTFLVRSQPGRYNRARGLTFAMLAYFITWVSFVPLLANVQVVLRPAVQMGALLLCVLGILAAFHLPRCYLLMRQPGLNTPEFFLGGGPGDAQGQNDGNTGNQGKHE
Assay: Ca2+ imaging (bath perfusion) in HEK cells transfected with TAS1R1-372A, TAS1R3-757R and Gα16-i3
Type: cell-based
Settings: 5∼100 mM
Experimental: HEK293 cells were cultured at 37°C under a humidified atmosphere containing 5% CO2 in Dulbecco's modified Eagle's medium supplemented with 10% fetal bovine serum. To obtain reproducible Ca^2+ responses, cells were split every 2 days before cells become confluent. Cells were discarded after 2 months of passages and new cells were prepared from frozen-stock. For calcium imaging experiments, cells were seeded onto a 35 mm recording chamber or poly-D-lysine coated 96-well black-wall, clear-bottom recording plates. After 24 hrs at 37°C, confluent cells (60∼70%) were washed in OptiMEM medium supplemented with GlutaMAX-I (invitrogen) and plasmid DNAs were transiently cotransfected into HEK293 cells using Lipofectamine2000 regent (invitrogen) (2.0 µl per 1.0 µg DNA). TAS1Rs (or their mutants) and Gαl6-i3 were transfected using 1.5 and 1.0 µg of plasmid for 35 mm recording chambers, 0.09 and 0.06 µg of plasmid per well for 96-well plates, respectively. […] Immuno staining and Ca^2+ imaging assays were performed 36∼40 hrs after transfection.
Two Ca^2+ imaging systems were used. A bath perfusion system was used for kinetics of activation. Transfected cells in 35 mm recording chambers were washed in Hank's balanced salt solution (HBSS) containing 10 mM HEPES, pH 7.4, and loaded with 3.0 µM Fluo-4 acetoxymethyl ester (invitrogen) for 1.0 hr at 37°C. The dye-loaded cells were subjected to Ca^2+ imaging. Taste solutions diluted in HBSS were applied sequentially to the cells for 30 s with a peristaltic pump at a flow rate of 1.5 ml/min, and fluorescence images were obtained using a S Fluor ×20/0.75 objective lens (Nikon) via a cooled-CCD camera (C6790, Hamamatsu Photonics) fitted to a TE300 microscope (Nikon). Acquisition and analysis of these fluorescence images used AquaCosmos software (v. 1.3, Hamamatsu Photonics). A 3 min interval was left between each tastant application to ensure that the cells were not desensitized as a result of the previous application of tastants. Responses were measured from 30 individual responding cells. […] Isoproterenol (ISO, 10 µM) was used as positive control, which stimulates endogenous β-adrenergic receptors, providing that the Gα16-dependent signal transduction cascade was functional.

Compound: N[C@@H](CCC(=O)O)C(=O)[O-].[Na+] [MSG, monosodium glutamate]
- activation (Ca2+ mobilization) of transfected cells: elicited transient intracellular calcium increases
